Source: patent US20180000085A1, “USE OF PICOLINAMIDE COMPOUNDS WITH FUNGICIDAL ACTIVITY” (DOW AGROSCIENCES LLC, priority 2014, published 2018)

Tests used:
Puccinia triticina = test: Wheat brown rust (PUCCRT) disease control on wheat seedlings; assay type: in vivo; design: key to PUCCRT 3DC, HV activity at 100 ppm (% control rating) / PUCCRT disease control, 3DC / PUCCRT 1DP disease control rating, HV activity / PUCCRT 3DC disease control rating, HV activity / PUCCRT 3DC, LV activity at 125.1 g/H (% Control rating) / PUCCRT 1DP, LV activity at 125.1 g/H (% Control rating) / PUCCRT 3DC disease control rating, LV activity at 125.1 g/H / PUCCRT 1DP disease control rating, LV activity at 125.1 g/H / PUCCRT 3DC disease control rating, HV activity at 100 ppm / PUCCRT 1DP disease control rating, HV activity at 100 ppm / HV activity at 100 ppm PUCCRT 3DC (disease control rating) / LV activity at 125.1 g/H PUCCRT 1DP (disease control rating) / LV activity at 125.1 g/H PUCCRT 3DC (disease control rating): A: > 80; B: ≤ 80; C: Not Tested; D: No Activity Observed in the Reported Assay; settings: for PUCCRT 1DP disease control rating, LV activity at 125.1 g/H / PUCCRT 3DC disease control rating, LV activity at 125.1 g/H: low volume application; for PUCCRT 1DP disease control rating, LV activity at 125.1 g/H / PUCCRT 1DP disease control rating, HV activity at 100 ppm: 1 day protectant; for PUCCRT 3DC disease control rating, LV activity at 125.1 g/H / PUCCRT 3DC disease control rating, HV activity at 100 ppm: 3 day curative; for PUCCRT 1DP disease control rating, HV activity at 100 ppm / PUCCRT 3DC disease control rating, HV activity at 100 ppm: high volume application
Zymoseptoria tritici = test: Leaf blotch of wheat (SEPTTR) disease control on wheat seedlings; assay type: in vivo; design: key to SEPTTR 1DP, HV activity at 100 ppm (% control rating) / SEPTTR 3DC, HV activity at 100 ppm (% control rating) / SEPTTR disease control, 1DP / SEPTTR disease control, 3DC / SEPTTR 1DP disease control rating, HV activity / SEPTTR 3DC disease control rating, HV activity / SEPTTR 3DC, LV activity at 125.1 g/H (% Control rating) / SEPTTR 1DP, LV activity at 125.1 g/H (% Control rating) / SEPTTR 1DP disease control rating, LV activity at 125.1 g/H / SEPTTR 3DC disease control rating, LV activity at 125.1 g/H / SEPTTR 3DC disease control rating, HV activity at 100 ppm / SEPTTR 1DP disease control rating, HV activity at 100 ppm / HV activity at 100 ppm SEPTTR 3DC (disease control rating) / HV activity at 100 ppm SEPTTR 1DP (disease control rating) / LV activity at 125.1 g/H SEPTTR 1DP (disease control rating) / LV activity at 125.1 g/H SEPTTR 3DC (disease control rating): A: > 80; B: ≤ 80; C: Not Tested; D: No Activity Observed in the Reported Assay; settings: for SEPTTR 1DP disease control rating, LV activity at 125.1 g/H / SEPTTR 3DC disease control rating, LV activity at 125.1 g/H: low volume application; for SEPTTR 1DP disease control rating, LV activity at 125.1 g/H / SEPTTR 1DP disease control rating, HV activity at 100 ppm: 1 day protectant; for SEPTTR 3DC disease control rating, LV activity at 125.1 g/H / SEPTTR 3DC disease control rating, HV activity at 100 ppm: 3 day curative; for SEPTTR 1DP disease control rating, HV activity at 100 ppm / SEPTTR 3DC disease control rating, HV activity at 100 ppm: high volume application

Structure (SMILES)	PUCCRT 1DP disease control rating, LV activity at 125.1 g/H (Puccinia triticina)	PUCCRT 3DC disease control rating, LV activity at 125.1 g/H (Puccinia triticina)	SEPTTR 1DP disease control rating, LV activity at 125.1 g/H (Zymoseptoria tritici)	SEPTTR 3DC disease control rating, LV activity at 125.1 g/H (Zymoseptoria tritici)	PUCCRT 1DP disease control rating, HV activity at 100 ppm (Puccinia triticina)	PUCCRT 3DC disease control rating, HV activity at 100 ppm (Puccinia triticina)	SEPTTR 1DP disease control rating, HV activity at 100 ppm (Zymoseptoria tritici)	SEPTTR 3DC disease control rating, HV activity at 100 ppm (Zymoseptoria tritici)
CCC(CC)C(Oc1ccc(Cl)cc1Cl)C(C)OC(=O)C(CC(C)C)NC(=O)c1nccc(OC)c1OC(C)=O (centres unmarked) [Cmpd 689]	D	D	D	B (≤ 80)				
COc1ccnc(C(=O)NC(C)C(=O)OC(C)C(Oc2ccccc2)c2cccs2)c1OC(C)=O (centres unmarked) [Cmpd 690]	B (≤ 80)	B (≤ 80)	B (≤ 80)	B (≤ 80)				
C=CC[C@@H](Oc1ccccc1)[C@H](C)OC(=O)[C@H](C)NC(=O)c1nccc(OC)c1OC(C)=O [Cmpd 695]	A (> 80)	A (> 80)	B (≤ 80)	B (≤ 80)				
C=CC[C@@H](Oc1ccc(Cl)cc1Cl)[C@H](C)OC(=O)[C@H](C)NC(=O)c1nccc(OC)c1OC(C)=O [Cmpd 697]	A (> 80)	A (> 80)	D	B (≤ 80)				
C=CC[C@@H](Oc1ccccc1)[C@H](C)OC(=O)[C@H](C)NC(=O)c1nccc(OC)c1OCOC(C)=O [Cmpd 698]	A (> 80)	A (> 80)	B (≤ 80)	A (> 80)				
C=CC[C@@H](Oc1ccc(Cl)cc1Cl)[C@H](C)OC(=O)[C@H](C)NC(=O)c1nccc(OC)c1OCOC(C)=O [Cmpd 700]	A (> 80)	A (> 80)	D	B (≤ 80)				
COc1ccnc(C(=O)NCC(=O)O[C@@H](C)[C@H](Oc2ccccc2)C(C)C)c1O [Cmpd 809]					A (> 80)	A (> 80)	D	D
CC[C@H](NC(=O)c1nccc(OC)c1O)C(=O)O[C@@H](C)[C@H](Oc1ccccc1)C(C)C [Cmpd 810]					A (> 80)	A (> 80)	A (> 80)	A (> 80)
COc1ccnc(C(=O)N[C@H](C(=O)O[C@@H](C)[C@H](Oc2ccccc2)C(C)C)C(C)C)c1O [Cmpd 811]					A (> 80)	A (> 80)	B (≤ 80)	B (≤ 80)
COc1ccnc(C(=O)N[C@@H](CC(C)C)C(=O)O[C@@H](C)[C@H](Oc2ccccc2)C(C)C)c1O [Cmpd 813]					B (≤ 80)	D	D	B (≤ 80)
COc1ccnc(C(=O)N[C@@H](C)C(=O)O[C@@H](C)[C@H](Oc2cccc(F)c2)c2cccc(-c3ccccc3)c2)c1O [Cmpd 814]					B (≤ 80)	D	D	D
CC[C@H](OC(=O)[C@H](C)NC(=O)c1nccc(OC)c1O)[C@H](Oc1ccccc1)C(C)C [Cmpd 815]					A (> 80)	A (> 80)	B (≤ 80)	D
COc1ccnc(C(=O)N[C@@H](C)C(=O)O[C@@H](C)[C@H](OCC2CC2)C2CCCCC2)c1O [Cmpd 816]					A (> 80)	B (≤ 80)	B (≤ 80)	B (≤ 80)
COc1ccnc(C(=O)NC(C)C(=O)OC(C)C(Oc2ccc(Cl)cc2Cl)c2ccccc2)c1O (centres unmarked) [Cmpd 817]					A (> 80)	A (> 80)	A (> 80)	B (≤ 80)
COc1ccnc(C(=O)NC(C)C(=O)OC(C)C(Oc2ccccc2)c2ccccc2)c1O (centres unmarked) [Cmpd 818]					A (> 80)	D	A (> 80)	A (> 80)
COc1ccnc(C(=O)NC(C)C(=O)OC(C)C(OCC(C)C)c2ccccc2)c1O (centres unmarked) [Cmpd 819]					D	B (≤ 80)	B (≤ 80)	D
COc1ccnc(C(=O)NC(C)C(=O)OC(C)C(OCC(C)C)c2ccccc2)c1O (centres unmarked) [Cmpd 820]					A (> 80)	A (> 80)	A (> 80)	A (> 80)
CCCOC(c1ccccc1)C(C)OC(=O)C(C)NC(=O)c1nccc(OC)c1O (centres unmarked) [Cmpd 821]					A (> 80)	A (> 80)	B (≤ 80)	B (≤ 80)
COc1ccnc(C(=O)NC(C)C(=O)OC(C)C(OC)c2ccccc2)c1O (centres unmarked) [Cmpd 823]					B (≤ 80)	A (> 80)	D	B (≤ 80)
COc1ccnc(C(=O)NC(C)C(=O)OC(C)C(OCC2CC2)c2ccccc2)c1O (centres unmarked) [Cmpd 825]					A (> 80)	A (> 80)	B (≤ 80)	B (≤ 80)
COc1ccnc(C(=O)NC(C)C(=O)OC(C)C(OCC2CC2)C23CC4CC(CC(C4)C2)C3)c1O (centres unmarked) [Cmpd 827]					A (> 80)	D	B (≤ 80)	D
COc1ccnc(C(=O)NC(C)C(=O)OC(C)C(OC)C23CC4CC(CC(C4)C2)C3)c1O (centres unmarked) [Cmpd 829]					B (≤ 80)	D	D	D
COc1ccnc(C(=O)NC(C)C(=O)OC(C)(C)C(Oc2ccccc2)C(C)C)c1O (centres unmarked) [Cmpd 831]					B (≤ 80)	D	D	D
COc1ccnc(C(=O)NC(C)C(=O)OC(C)C(Oc2ccccc2)c2ccc(-c3ccccc3)cc2)c1O (centres unmarked) [Cmpd 833]					A (> 80)	B (≤ 80)	A (> 80)	B (≤ 80)
COc1ccnc(C(=O)NC(C)C(=O)OC(C)(C)[C@H](Oc2ccccc2)C(C)C)c1O (stereo partly drawn) [Cmpd 835, (R)-2,4-dimethyl-3-phenoxypentan-2-yl 2-(3-hydroxy-4-methoxypicolinamido)propanoate]					A (> 80)	A (> 80)	D	B (≤ 80)
COc1ccnc(C(=O)NC(C)C(=O)OC(C)C(Oc2ccccc2)C2CCCCC2)c1O (centres unmarked) [Cmpd 836]					A (> 80)	A (> 80)	A (> 80)	A (> 80)
